Data reported in patent US20240279232A1, “USE OF SUBSTITUTED 5-(4-METHYL-6-PHENYL-4H-BENZO[F]IMIDAZO[1,5-A][1,4] DIAZEPIN-3-YL)-1,2,4-O[…] THE TREATMENT OF INFLAMMATORY CONDITIONS” (priority 2021, published 2024).
Like-named read-outs stand apart in the source and are kept apart here.

Key:
[1] = test system: BZR (benzodiazepine site of GABAAR); assay: GABAAR/BZR binding, rat brain homogenate with 3H-flunitrazepam; settings: rat brain homogenate, 3H-flunitrazepam; for BZR %: Percent inhibition at 10,000 nM
Description: (§1) Ligand affinities were determined for KOR (κ opioid receptor), DOR (δ opioid receptor), and MOR (μ opioid receptor) using radioligand binding assays at a screening concentration of 10,000 nM. For these assays, cell homogenates from HEK293 cells that overexpressed KOR, MOR, and DOR were used in combination with [^3H]-U69593, [^3H]-DAMGO, and [^3H]-DADLE, respectively Compounds that exceeded more than 50% radioligand displacement were investigated further in concentration-dependent experiments to determine Ki values. Gamma aminobutyric acid type A receptor (GABAAR) binding was determined with rat brain homogenate and ^3H-flunitrazepam. Flunitrazepam binds GABAAR subtypes that consists of two α and two β subunits and one γ or δ subunit. Strong affinities to α1-3,5,6β1-3γ1-y/δ GABAARS have been reported for flunitrazepam. The […] GABAAR subtype expression in the brain includes 43% α1β2γ2, 15% α2β3γ2+8% α2βγ1, 10% α3β3γ2, 6% α4βγ/δ, 4% α5β3γ2, and 4% α6β2γ2/δ. Therefore, compounds with high affinity toward the synaptic benzodiazepine-sensitive receptors (BZR) predominately bind α1-3β2-3γ1-2 GABAARs. Alternatively, compounds with weak BZR binding might be selective for α4-6βγ/δ GABAARs.
(§2) Psychoactive Drug Screening Program. Detailed protocols for the primary and secondary radioligand binding assays can be found in the National Institute of Mental Health's Psychoactive Drug Screening Program (NIMH PDSP) Assay Protocol Book. Briefly, primary and secondary radioligand binding assays are carried out in a final of volume of 125 μL per well in appropriate binding buffer. The radioactive ligand concentration is close to the Kd. Total binding and nonspecific binding are determined in the absence and presence of 10 μM of appropriate reference compound, respectively. In brief, plates are usually incubated at room temperature and in the dark for 90 min. Reactions are stopped by vacuum filtration onto 0.3% polyethyleneimine (PEI) soaked 96-well filter mats using a 96-well Filtermate harvester, followed by three washes with cold PBS buffer. Scintillation cocktail is then melted onto the microwave-dried filters on a hot plate and radioactivity counted in a Microbeta counter. The data (n=6) were analyzed by nonlinear regression.

KOR (κ opioid receptor) = target: T1, KOR (κ opioid receptor) (Homo sapiens, UniProt P41145); assay: KOR radioligand binding ([3H]-U69593, HEK293 cell homogenates)
T1 construct: expressed in transfected cells; host or cells: HEK293 (stably transfected)
T1 sequence (P41145 whole entry): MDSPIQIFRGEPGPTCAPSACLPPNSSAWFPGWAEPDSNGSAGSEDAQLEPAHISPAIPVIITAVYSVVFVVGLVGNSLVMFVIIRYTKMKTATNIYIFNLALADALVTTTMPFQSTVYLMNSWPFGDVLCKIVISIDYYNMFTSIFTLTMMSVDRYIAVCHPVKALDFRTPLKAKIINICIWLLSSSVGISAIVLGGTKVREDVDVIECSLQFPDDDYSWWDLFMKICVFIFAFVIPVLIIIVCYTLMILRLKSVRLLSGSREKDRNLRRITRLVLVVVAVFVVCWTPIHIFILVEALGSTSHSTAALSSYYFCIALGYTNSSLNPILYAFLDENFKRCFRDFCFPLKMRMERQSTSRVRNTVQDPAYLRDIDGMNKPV
Description: as §2, with “Radioligand binding assays.” for “Psychoactive Drug Screening Program.”, “Book (Roth, 2018).” for “Book.”, “The radioactive ligand concentration is close to the Kd.” left out, “compound (Naltrindole DOR, Salvinorin A KOR and DAMGO MOR).” for “compound, respectively.”
as §1, §2

MOR (μ opioid receptor) = target: T2, MOR (μ opioid receptor) (Homo sapiens, UniProt P35372); assay: MOR radioligand binding ([3H]-DAMGO, HEK293 cell homogenates); settings: Percent inhibition at 10,000 nM; [3H]-DAMGO
T2 construct: expressed in transfected cells; host or cells: HEK293
T2 sequence (P35372 whole entry, species assumed): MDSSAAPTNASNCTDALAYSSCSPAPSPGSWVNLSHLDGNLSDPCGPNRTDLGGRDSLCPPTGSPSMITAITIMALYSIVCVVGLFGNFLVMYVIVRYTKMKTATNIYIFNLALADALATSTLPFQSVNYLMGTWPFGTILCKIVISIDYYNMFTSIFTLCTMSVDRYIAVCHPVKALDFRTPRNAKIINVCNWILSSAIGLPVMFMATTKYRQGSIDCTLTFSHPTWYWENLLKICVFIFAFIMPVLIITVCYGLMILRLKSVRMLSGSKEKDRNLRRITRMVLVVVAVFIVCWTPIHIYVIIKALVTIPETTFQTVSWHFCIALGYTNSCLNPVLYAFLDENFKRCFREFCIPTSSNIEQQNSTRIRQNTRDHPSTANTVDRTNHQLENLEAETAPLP
Description: as §2, with “Radioligand binding assays.” for “Psychoactive Drug Screening Program.”, “Book (Roth, 2018).” for “Book.”, “The radioactive ligand concentration is close to the Kd.” left out, “compound (Naltrindole DOR, Salvinorin A KOR and DAMGO MOR).” for “compound, respectively.”
as §1, §2

DOR (δ opioid receptor) = target: T3, DOR (δ opioid receptor) (Homo sapiens, UniProt P41143); assay: DOR radioligand binding ([3H]-DADLE, HEK293 cell homogenates); settings: Percent inhibition at 10,000 nM; [3H]-DADLE
T3 construct: expressed in transfected cells; host or cells: HEK293
T3 sequence (P41143 whole entry): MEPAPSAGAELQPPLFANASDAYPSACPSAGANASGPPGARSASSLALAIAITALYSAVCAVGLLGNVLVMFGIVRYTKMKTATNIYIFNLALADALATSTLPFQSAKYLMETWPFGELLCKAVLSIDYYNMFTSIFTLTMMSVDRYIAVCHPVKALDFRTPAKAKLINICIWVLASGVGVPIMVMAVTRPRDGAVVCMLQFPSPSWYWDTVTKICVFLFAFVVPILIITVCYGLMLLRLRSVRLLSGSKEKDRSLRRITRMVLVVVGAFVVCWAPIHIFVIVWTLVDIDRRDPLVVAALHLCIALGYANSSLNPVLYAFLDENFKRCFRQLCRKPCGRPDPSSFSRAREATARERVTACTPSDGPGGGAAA
Description: as §2, with “Radioligand binding assays.” for “Psychoactive Drug Screening Program.”, “Book (Roth, 2018).” for “Book.”, “The radioactive ligand concentration is close to the Kd.” left out, “compound (Naltrindole DOR, Salvinorin A KOR and DAMGO MOR).” for “compound, respectively.”
as §1, §2

[2] = Percent inhibition at 10,000 nM, [3H]-U69593
[3] = concentration-dependent, [3H]-U69593, read-out: KOR (Ki)

| Structure (SMILES) | BZR % [1] | Ki [1] | inhibition at 10 µM (KOR (κ opioid receptor); [2]) | inhibition at 10 µM (MOR (μ opioid receptor)) | inhibition at 10 µM (DOR (δ opioid receptor)) | Ki (KOR (κ opioid receptor); [3]) | KOR affinity (in words) (KOR (κ opioid receptor); radioligand binding) | KOR % (KOR (κ opioid receptor); [2]) | MOR % (MOR (μ opioid receptor)) | DOR % (DOR (δ opioid receptor)) | Ki (KOR (κ opioid receptor)) |
| --- | --- | --- | --- | --- | --- | --- | --- | --- | --- | --- | --- |
| C#Cc1ccc2c(c1)C(c1ccccn1)=N[C@H](C)c1c(C(=O)O)ncn1-2 [GL-II-30] | 65% | 431 nM | 0% | 20% | 4% | – | – | – | – | – | – |
| C#Cc1ccc2c(c1)C(c1ccccn1)=N[C@H](C)c1c(C(=O)NC)ncn1-2 [GL-II-31] | 72% | 1700 nM | 23% | 17% | 3% | – | – | – | – | – | – |
| C#Cc1ccc2c(c1)C(c1ccccc1F)=N[C@H](C)c1c(C(=O)N(C)C)ncn1-2 [GL-II-73] | 75% | 506 nM | 58% | 6% | 0% | 1190 nM | – | – | – | – | – |
| C#Cc1ccc2c(c1)C(c1ccccc1F)=N[C@H](C)c1c(C(=O)NCC)ncn1-2 [GL-II-74] | 84% | 68 nM | 86% | 10% | 0% | 194 nM | – | – | – | – | – |
| C#Cc1ccc2c(c1)C(c1ccccc1F)=N[C@H](C)c1c(C(=O)NC3CC3)ncn1-2 [GL-II-75] | 85% | 93 nM | 81% | 0% | 3% | 278 nM | – | – | – | – | – |
| C#Cc1ccc2c(c1)C(c1ccccc1F)=N[C@H](C)c1c(C(=O)N3CCCC3)ncn1-2 [GL-II-76] | 43% | – | 80% | 0% | 0% | 371 nM | – | – | – | – | – |
| C[C@H]1N=C(c2ccccc2F)c2cc(Br)ccc2-n2cnc(C(=O)O)c21 [GL-II-93] | 73% | 86 nM | 0% | 0% | 0% | – | No KOR affinity was observed | – | – | – | – |
| Brc1ccc2c(c1)C(c1ccccc1)=NCc1c(-c3cnco3)ncn1-2 [KRM-II-73] | 97% | 45 nM | 83% | 11% | 32% | 736 nM | – | – | – | – | – |
| Brc1ccc2c(c1)C(c1ccccn1)=NCc1c(-c3cnco3)ncn1-2 [KRM-II-97] | 93% | 140 nM | 62% | 18% | 8% | 1960 nM | – | – | – | – | – |
| Cc1ncoc1-c1ncn2c1CN=C(c1ccccc1F)c1cc(Br)ccc1-2 [KRM-III-59] | 96% | 20 nM | – | – | – | 408 nM | – | 73% | 0% | 11% | – |
| C#Cc1ccc2c(c1)C(c1ccccc1F)=NCc1c(-c3ocnc3C)ncn1-2 [KRM-III-65] | 96% | 45 nM | 64% | 0% | 16% | 879 nM | – | – | – | – | – |
| Cc1ncoc1-c1ncn2c1CN=C(c1ccccc1)c1cc(Br)ccc1-2 [KRM-III-66] | 86% | 49 nM | 67% | 12% | 11% | 756 nM | – | – | – | – | – |
| C#Cc1ccc2c(c1)C(c1ccccn1)=NCc1c(-c3cnco3)ncn1-2 [KRM-III-67] | 71% | 144 nM | 48% | 30% | 3% | – | – | – | – | – | – |
| C#Cc1ccc2c(c1)C(c1ccccn1)=NCc1c(-c3ocnc3C)ncn1-2 [KRM-III-79] | 81% | 308 nM | 9% | 32% | 1% | – | – | – | – | – | – |
| C#Cc1ccc2c(c1)C(c1ccccc1F)=N[C@@H](C)c1c(C(=O)NC)ncn1-2 [MP-II-023] | 97% | 37 nM | 91% | 0% | 16% | 119 nM | – | – | – | – | – |
| C#Cc1ccc2c(c1)C(c1ccccn1)=NCc1c(C(=O)OC(C)C)ncn1-2 [MP-II-068] | 97% | 42 nM | 85% | 0% | 34% | 550 nM | – | – | – | – | – |
| C#Cc1ccc2c(c1)C(c1ccccc1F)=N[C@H](C)c1c(C(=O)OC)ncn1-2 [MP-III-004] | 78% | 445 nM | 76% | 0% | 24% | 599 nM | – | – | – | – | – |
| C#Cc1ccc2c(c1)C(c1ccccc1F)=N[C@@H](C)c1c(C(N)=O)ncn1-2 [MP-III-018.B] | 97% | 17 nM | 51% | 2% | 10% | 2780 nM | – | – | – | – | – |
| C#Cc1ccc2c(c1)C(c1ccccc1F)=N[C@H](C)c1c(C(N)=O)ncn1-2 [MP-III-019.B] | 94% | 54 nM | 62% | 2% | 0% | 1530 nM | – | – | – | – | – |
| C#Cc1ccc2c(c1)C(c1ccccc1F)=N[C@@H](C)c1c(C(=O)OC)ncn1-2 [MP-III-021] | 88% | 219 nM | 93% | 0% | 22% | 122 nM | – | – | – | – | – |
| C#Cc1ccc2c(c1)C(c1ccccn1)=NCc1c(C(=O)OC)ncn1-2 [MP-III-024] | 81% | 277 nM | 43% | 0% | 24% | – | – | – | – | – | – |
| COC(=O)c1ncn2c1[C@@H](C)N=C(c1ccccc1F)c1cc(Br)ccc1-2 [MP-III-058] | 86% | 290 nM | 84% | 0% | 4% | – | – | – | – | – | – |
| C#Cc1ccc2c(c1)C(c1ccccn1)=NCc1c(-c3nc(C)no3)ncn1-2 [MP-III-085] | 82% | 357 nM | 40% | 0% | 0% | – | – | – | – | – | – |
| C#Cc1ccc2c(c1)C(c1ccccc1F)=N[C@H](C)c1c(C(=O)O)ncn1-2 [SH-053-2'F-R-CH3-Acid] | 93% | 37 nM | 16% | 0% | 0% | – | – | – | – | – | – |
| C#Cc1ccc2c(c1)C(c1ccccc1F)=N[C@H](C)c1c(C(=O)OCC)ncn1-2 [SH-053-2′F-R-CH3] | 85% | 379 nM | 89% | 28% | 32% | 240 nM | – | – | – | – | – |
| C#Cc1ccc2c(c1)C(c1ccccc1F)=N[C@@H](C)c1c(C(=O)OCC)ncn1-2 [SH-053-2′F-S-CH3] | 92% | 111 nM | 93% | 7% | 36% | 90 nM | – | – | – | – | – |
| C#Cc1ccc2c(c1)C(c1ccccc1F)=N[C@@H](C)c1c(C(=O)O)ncn1-2 [SH-053-2′P-S-CH3 Acid] | 93% | 29 nM | 20% | 0% | 18% | – | – | – | – | – | – |
| CCOC(=O)c1ncn2c1[C@@H](C)N=C(c1ccccc1F)c1cc(Br)ccc1-2 [SH-I-047] | 84% | 238 nM | 82% | 16% | 0% | – | – | – | – | – | 86 nM |
